The results in this text go back to US12310975B2, “Modulators of BCL6 proteolysis and associated methods of use” (Arvinas Operations, Inc., priority 2019, dated 2025).

Some results are limits rather than exact numbers.

The target in the test is BCL6 (Homo sapiens (Human), UniProt P41182). Briefly: Immunofluorescence high content imaging of BCL6 degradation in T47D cells. It is filed as cell-based. The following applies: class symbols A-D, read-out: EC50 (nM)*. As to the method:
Immunofluorescence Protocol for High Cotent Imaging of BCL6
T47D cells were seeded in 100 μl volume of RPMI1640-10% FBS in a 96-well black/clear bottom plates for adherent lines (Corning #3904).
Day 1. T47D breast cancer epithelial cells were seeded at a density so that confluence is ˜70-90% at endpoint. Cells were seeded at 7K/0.1 ml/well the morning prior to the addition of exemplary bifunctional degradation compounds.
Day 2. Prepare an 11 point 3-fold serial dilution of exemplary bifunctional compound in DMSO and aliquot an appropriate volume to cell growth media to generate a 2× final concentration of exemplary bifunctional compound. Add an equal volume (0.1 ml) of 2× exemplary bifunctional compound/media mix to previously plated cells, for a final top concentration in aqueous cell growth media of 0.1 or 1 μM. Incubate for 3 days at 37° C., 5% CO2.
Day 5 Immunofluorescence. Discard cell media. Wash wells with 200 μl of room temperature phosphate-buffered saline (PBS). Prepared 4% paraformaldehyde (PFA) from 16% PFA (Electron Microscopy Sciences #15710) using 1×PBS. Fifty μl of 4% PF was added to each well and incubate for 15 minutes at room temperature to fix the cells. The PFA was aspirated and the cells washed twice with PBS (200 μl)).
Prepared 0.1% Triton X-100 in PBS using 10% triton X-100 stock. The cells were permeabilized by adding 100 ul of the 0.1% Triton X-100 in PBS to each well to permeabilize cells and incubating at room temperature for 15 minutes. Cells were washed twice with PBS.
Prepared 3% BSA/PBS (from Thermofisher #37515 Blocker BSA in TBS, 10%), and 100 ul was added to each well. The cells were incubated for at least 1 hour at room temperature.
Prepared 1% BSA/PBS using Blocker BSA/PBS, and the 3% BSA/PBS removed from the wells.
For no primary antibody controls, 50 μl 1% BSA/PBS was added.
Primary antibody (BCL6 Rb Ab, CST-14895, Cell Signaling) was diluted 1:300 in 1% BSA/PBS using Blocker BSA/PBS.
Fifty μl of primary antibody added to all remaining wells (i.e., all wells other than the primary antibody controls) and the cells were incubated overnight at 4° C. with slow orbital movement.
Day 6. Contents of the wells was removed and the cells washed four times with 200 ul PBS. 1% BSA/PBS was prepared using Blocker BSA in PBS.
Diluted secondary antibody goat anti-Rb IgG Alexa-488 1:1000, and cell mask-Alexa-647 1:3000 in 1% BSA/PBS in the same mix. Add 50 μl to each well and incubate at room temperature for 1 hour in the dark.
Cells were washed three times with 200 ul PBS, and then incubated for 10 minutes with 100 ul Hoechst dye at 1 μg/mL (20 mM stock) to stain cell nuclei. Wells were then washed with 200 μl PBS, and 100 ul of PBS was added to each well and the plate covered plate with a plastic opaque cover. Plates were stored at 4° C. and covered in aluminum foil until imaged.
Plates were equilibrated to room temperature prior to reading. The bottom of the plate was wiped with 70% isopropanol immediately prior to imaging.
10×, 4 fields/well, include Top hat smoothing in the analysis protocol.
As to `CNC(=O)COc1cc2cc(Nc3nc(N4CCC(OCCOCCOCCOCCOc5ccc6c(c5)CN(C5CCC(=O)NC5=O)C6=O)CC4)ncc3Cl)ccc2n(C)c1=O` (stereo not shown) [compound 59, 2-((6-((5-chloro-2-(4-(2-(2-(2-(2-((2-(2,6-dioxopiperidin-3-yl)-1-oxoisoindolin-5-yl)oxy)ethoxy)ethoxy)ethoxy)ethoxy)piperidin-1-yl)pyrimidin-4-yl)amino)-1-methyl-2-oxo-1,2-dihydroquinolin-3-yl)oxy)-N-methylacetamide], the DC50 was over 100 nM.
Turning to `CNC(=O)COc1cc2cc(Nc3nc(N4CCC(OCCOCCOCCOCCOc5ccc6c(c5)C(=O)N(C5CCC(=O)NC5=O)C6=O)CC4)ncc3Cl)ccc2n(C)c1=O` (stereo not shown) [compound 60, 2-((6-((5-chloro-2-(4-(2-(2-(2-(2-((2-(2,6-dioxopiperidin-3-yl)-1,3-dioxoisoindolin-5-yl)oxy)ethoxy)ethoxy)ethoxy)ethoxy)piperidin-1-yl)pyrimidin-4-yl)amino)-1-methyl-2-oxo-1,2-dihydroquinolin-3-yl)oxy)-N-methylacetamide], the DC50 is over 100 nM.
Next, `CNC(=O)COc1cc2cc(Nc3nc(N4CCC(OCCOCCOc5ccc6c(c5)CN(C5CCC(=O)NC5=O)C6=O)CC4)ncc3Cl)ccc2n(C)c1=O` (stereo not shown) [compound 61, 2-((6-((5-chloro-2-(4-(2-(2-((2-(2,6-dioxopiperidin-3-yl)-1-oxoisoindolin-5-yl)oxy)ethoxy)ethoxy)piperidin-1-yl)pyrimidin-4-yl)amino)-1-methyl-2-oxo-1,2-dihydroquinolin-3-yl)oxy)-N-methylacetamide]: 10 to 50 nM; `CNC(=O)COc1cc2cc(Nc3nc(N4CCC(OCCOCCOc5ccc6c(c5)C(=O)N(C5CCC(=O)NC5=O)C6=O)CC4)ncc3Cl)ccc2n(C)c1=O` (stereo not shown) [compound 63, 2-((6-((5-chloro-2-(4-(2-(2-((2-(2,6-dioxopiperidin-3-yl)-1,3-dioxoisoindolin-5-yl)oxy)ethoxy)ethoxy)piperidin-1-yl)pyrimidin-4-yl)amino)-1-methyl-2-oxo-1,2-dihydroquinolin-3-yl)oxy)-N-methylacetamide]: 10 to 50 nM; `CNC(=O)COc1cc2cc(Nc3nc(N4CCC(OCCOCCOCCOCCOCCOc5ccc6c(c5)C(=O)N(C5CCC(=O)NC5=O)C6=O)CC4)ncc3Cl)ccc2n(C)c1=O` (stereo not shown) [compound 64, 2-((6-((5-chloro-2-(4-((14-((2-(2,6-dioxopiperidin-3-yl)-1,3-dioxoisoindolin-5-yl)oxy)-3,6,9,12-tetraoxatetradecyl)oxy)piperidin-1-yl)pyrimidin-4-yl)amino)-1-methyl-2-oxo-1,2-dihydroquinolin-3-yl)oxy)-N-methylacetamide]: over 100 nM.
Turning to `CNC(=O)COc1cc2cc(Nc3nc(N4CCC(OCCOCCOCCOc5ccc6c(c5)CN(C5CCC(=O)NC5=O)C6=O)CC4)ncc3Cl)ccc2n(C)c1=O` (stereo not shown) [compound 65, 2-((6-((5-chloro-2-(4-(2-(2-(2-((2-(2,6-dioxopiperidin-3-yl)-1-oxoisoindolin-5-yl)oxy)ethoxy)ethoxy)ethoxy)piperidin-1-yl)pyrimidin-4-yl)amino)-1-methyl-2-oxo-1,2-dihydroquinolin-3-yl)oxy)-N-methylacetamide], the DC50 was over 100 nM.
On to `CNC(=O)COc1cc2cc(Nc3nc(N4CCC(OCCOCCOCCOCCNc5cccc6c5C(=O)N(C5CCC(=O)NC5=O)C6=O)CC4)ncc3Cl)ccc2n(C)c1=O` (stereo not shown) [compound 66, 2-((6-((5-chloro-2-(4-(2-(2-(2-(2-((2-(2,6-dioxopiperidin-3-yl)-1,3-dioxoisoindolin-4-yl)amino)ethoxy)ethoxy)ethoxy)ethoxy)piperidin-1-yl)pyrimidin-4-yl)amino)-1-methyl-2-oxo-1,2-dihydroquinolin-3-yl)oxy)-N-methylacetamide], for which the DC50 is over 100 nM.
